| Compound | melting point |
| --- | --- |
| CCCCCNS(=O)(=O)NC(=O)/C=C/c1ccc(OCCOC)cc1Oc1ncc(C(F)(F)F)cc1Cl | 120 to 122 °C |
| COc1ccc(-c2nc(-c3ccn4c3CCC4)[nH]c2-c2ccc(OC)cc2)cc1 | 238 °C |
| O=c1cc(-c2ccccc2)sc(N2CCOCC2)c1 | 160 to 161 °C |
| N#CC(C(=O)O)=C1Nc2ccccc2O1 | 185 to 187 °C |
| CC(=O)C(=O)N1C(C(=O)OCc2ccccc2)CC2CCCCC21 (centres undefined) | 50 to 55 °C |
| CSc1nnc(C(C)C2CC2)c(=O)n1N (centres undefined) | 111 to 113 °C |
| FC(F)C(F)(F)Oc1cccc(Nc2nccc(-c3cccs3)n2)c1 | 115 to 116 °C |
| CCC(O)(c1ccc(O)cc1)c1ccc(C(F)(F)F)cc1 (centres undefined) | 126 to 127 °C |
| CC1(C)CC(=O)c2c(S(C)(=O)=O)sc(C(=O)N3CCCC3)c2C1 | 161 °C |
| CCc1cc(C(=O)c2ccccc2F)c(-n2c(C)nnc2CNC(=O)c2cc3ccccc3[nH]2)s1 | 255 to 256 °C |
| CN1CC(CO)C2c3cccc4c3c(cn4S(=O)(=O)c3ccccc3)CC21 (centres undefined) | 124 to 127 °C |
| CCCCCC(CC(=O)Nc1cc(C(=O)O)ccc1C(C)(C)C)c1ccc(C)cc1OC (centres undefined) | 164 to 165 °C |
| Cc1ccc(C)c(OCCCC(C)(C)C(=O)Nc2ccc3c(c2)OCO3)c1 | 89 to 90 °C |
| CCOC(=O)CN1C(=O)CN2CC(=O)NN=C21 | 188 to 193 °C |
| COc1ccc(-c2cc(N3CCCCC3)c(C#N)c3c2-c2ccccc2C3=O)cc1 | 210 to 212 °C |
| COc1cc2c(cc1C(F)(F)F)N(C(=O)Nc1cc(Br)c(C)c(-c3cccnc3)c1)CC2 | 216 to 218 °C |
| CCCC(=O)Nc1n[nH]c2c([N+](=O)[O-])c(Br)ccc12 | 248 °C |
| O=C(COc1ccc(C2=NNC(=O)NC2)cc1)NCCN1CCOCC1 | 216 to 217 °C |
| CC(=O)OCc1cc2c(Cl)ccc(-n3c(=O)cc(C(F)(F)F)n(C)c3=O)c2o1 | 135 to 138 °C |
| NC(=O)CCCCCCCCCCn1nnnc1S | 112 to 114 °C |
| CC(CO)CCn1c(C(=O)NCc2cc(C(F)(F)F)cc(C(F)(F)F)c2)c(-c2ccccc2)c2cccnc2c1=O (racemic) | 213 to 214 °C |
| CCn1ncc2c3c(NCc4ccc(OC)c(Cl)c4)nnc(N4CCC(O)CC4)c3cnc21 | 109 to 110 °C |
| CCOC(=O)CNC(=O)Oc1cccc2ccc(C)nc12 | 118 to 120 °C |

| Compound | melting point |
| --- | --- |
| O=C1CC(c2ccc([N+](=O)[O-])cc2)=Nc2cccc(C(F)(F)F)c21 | > 260 °C |
| O=C1Oc2ccccc2C1c1ccccc1 (centres undefined) | 109 to 111 °C |
| Cc1c(NC(=O)c2ccc(OCC3CC3)cc2)ccc2cc(CN3CCCC3)cnc12 | 168 °C |
| COc1ccnc(CCc2nc3cc(-c4ccc(S(=O)(=O)N5CCC(C(=O)c6ccccc6)CC5)cc4)cnc3[nH]2)c1 | 174 to 175 °C |
| CN1C(c2ccncc2)CC(=O)CC1c1ccncc1 (centres undefined) | 103 to 106 °C |
| Cc1ncc2cc(C(c3ccccc3)n3ccnc3)ccc2n1 (centres undefined) | 130 °C |
| Nc1sc2c(c1C(=O)c1ccc(Cl)cc1)CCN(CCc1ccccc1)C2 | 148 to 150 °C |
| CCCCCCCCCCCCCCCCCCOc1cc(OCCCOc2cccc(N)c2)cc(C(=O)N(CC(=O)O)CC(=O)O)c1 | 100 to 104 °C |
| COCCC1(C(=O)N[C@@H](Cc2ccc(NC(=O)c3cc(C#N)ccc3Cl)cc2)C(=O)O)CCCC1 | 169 to 172 °C |
| N#CNc1cccc2ccccc12 | 132 to 133 °C |
| COC(=O)c1cc(O)c(O)c(S(=O)(=O)O)c1 | 116 °C |
| Cc1cc(-n2ccnc2)c2cccc(OCc3c(Cl)ccc(S(=O)(=O)N4CCC[C@H]4C(=O)N4CCN(Cc5ccncc5)CC4)c3Cl)c2n1 | 108 °C |
| CC(C)(C)c1cc(CCc2ccccc2NC(=O)NC2CCN(Cc3cccnc3)CC2)cc(C(C)(C)C)c1O | 156 to 158 °C |
| O=C(Nc1ccc2[nH]ncc2c1)O[C@@H](c1cc(F)cc(Cl)c1)[C@H]1CCCCN1 | 220 °C |
| CCCCC(=O)C(C)(C)N1COC(C)=C(c2ccccc2)C1=O | 157 to 158 °C |
| Cc1cc(Nc2ccnc(Nc3ccc(S(=O)(=O)N(C)C4CCN(Cc5csnn5)CC4)cc3)n2)ccc1F | 168 °C |
| CNC(=O)C1CCCc2c1c1cc(OC)ccc1n2Cc1ccccc1 (centres undefined) | 259 to 261 °C |
| Brc1ccc2c(c1)C(c1ccccn1)=NCc1nnc(Br)n1-2 | 236 to 238 °C |
| O=C(NCC(F)(F)F)c1ccc(C=NO)cc1 | 153 to 154 °C |
| COc1ccc(C#N)c(ON=C(C)C)c1 | 78 to 79 °C |
| CC(C)N1Cc2c(Cl)nc(Cl)nc2C1=O | 122 to 123 °C |
| CC(=O)c1[nH]cnc1C | 140 to 142 °C |
| Cc1cccc2c(=O)cc(C(=O)Nc3ccc(CC4SC(=O)NC4=O)cc3)oc12 (centres undefined) | 305 to 307 °C |

| Compound | melting point |
| --- | --- |
| CCC(=NO)C(C)(C)NCCCN | 72 to 74 °C |
| CSC(=NC(=O)c1ccccc1)Nc1ccccc1 | 78 to 94 °C |
| Nc1c(-c2ccc(-c3ccc(F)cc3F)cc2)nc2ccc(Cl)cc2c1C(=O)O | 253 to 254 °C |
| Cc1ccnc(-c2nc(=O)c3ccc(Cl)cc3s2)c1 | 246 to 247 °C |
| O=C1Nc2ccccc2C12COc1ccc3nonc3c12 (centres undefined) | > 220 °C |
| Cc1ccccc1C(=O)c1cc2c(c(Br)c1O)CCCC2 | 151 to 153 °C |
| CC(C)C[C@@H](C=O)NC(=O)[C@H](Cc1c[nH]cn1)NC(=O)[C@H](Cc1c[nH]c2ccccc12)NC(=O)OCc1ccccc1 | 109 to 110 °C |
| O=c1[nH]c(=O)n2c3c1cnn3C(c1cccc(C(F)(F)F)c1)=CC2 | 260 to 262 °C |
| O=[N+]([O-])c1ccc(Cl)cc1NCC1CCCCC1 | 73 °C |
| O=C(O)[C@H]1CC[C@H](Nc2ncc3ncnc(Nc4ccc(F)c(Cl)c4)c3n2)CC1 | > 290 °C |
| CC(Cc1ccc(Br)cc1)C(=O)O (centres undefined) | 69 to 70 °C |
| CC(=O)OCCN1CCN(CC#CC2=Cc3ccccc3Sc3ccc(Cl)cc32)CC1 | 96 to 99 °C |
| O=c1[nH]c(N[N+](=O)[O-])ncc1Cc1ccn(Cc2ccccc2)c(=O)c1 | 200 to 201 °C |
| CCc1c(C(=O)C(N)=O)c2c(OCC(=O)N(C)OC)cccc2n1Cc1ccccc1 | 168 to 170 °C |
| Cn1cc(-c2ccccc2)c(=O)c(-c2cccc(CC3CCCCC3)c2)c1 | 147 to 148 °C |
| CCOC(=NC(=O)c1ccc(Cl)c(Cl)c1)N1Cc2ccccc2-c2ccccc2C1 | 138 °C |
| CCC(CC)C(=O)OC1CC(C)C=C2C=CC(C)C(CCC3CC(O)CC(=O)O3)C21 (centres undefined) | 120 to 122 °C |
| CCCCCCCCCCCCCCOc1cc(-c2ccccc2)c(OCC(=O)O)c(-c2ccccc2)c1 | 89 to 90 °C |
| CCC(=Cc1cccnc1)C(=O)NCCCCN1CCN(C(c2ccccc2)c2ccccc2)CC1 | 137 to 141 °C |
| O=C1CCC(N2Cc3c(CNC(=O)Nc4ccccc4)cccc3C2=O)C(=O)N1 (centres undefined) | 328 to 330 °C |
| Cc1ccc(Oc2cccc(NC(=O)c3ccn4c3CSC4c3cccnc3)c2)cc1 (centres undefined) | 110 °C |
| COC(=O)c1ccc(OCCCCCCc2ccc3cc(OCc4ccccc4)c(OCc4ccccc4)cc3c2)cc1 | 121 to 125 °C |
| O=C1Nc2ccccc2N(C(=O)Cl)c2c1csc2Cl | 158 to 161 °C |
